Source: ChEMBL document CHEMBL4507280 (2021)

Assays:
[1] = target: Vascular endothelial growth factor receptor 2 (Homo sapiens) (UniProt P35968); conditions: Compound concentration 1000.0 nM
[2] = system: Receptor-type tyrosine-protein kinase FLT3 (Homo sapiens), P36888 [R834Q]; conditions: Compound concentration 1000.0 nM
[3] = target: Homeodomain-interacting protein kinase 4 (Homo sapiens) (UniProt Q8NE63); conditions: Compound concentration 1000.0 nM
[4] = target: Insulin-like growth factor 1 receptor (Homo sapiens) (UniProt P08069); conditions: Compound concentration 1000.0 nM
[5] = target: Death-associated protein kinase 3 (Homo sapiens) (UniProt O43293); conditions: Compound concentration 1000.0 nM
[6] = target: Phosphatidylinositol 5-phosphate 4-kinase type-2 gamma (Homo sapiens) (UniProt Q8TBX8); conditions: Compound concentration 1000.0 nM
[7] = target: Fibroblast growth factor receptor 1 (Homo sapiens) (UniProt P11362); conditions: Compound concentration 1000.0 nM
[8] = target: Tyrosine-protein kinase JAK2 (Homo sapiens) (UniProt O60674); conditions: Compound concentration 1000.0 nM
[9] = target: LIM domain kinase 1 (Homo sapiens) (UniProt P53667); conditions: Compound concentration 1000.0 nM
[10] = target: Serine/threonine-protein kinase OSR1 (Homo sapiens) (UniProt O95747); conditions: Compound concentration 1000.0 nM
[11] = system: Leucine-rich repeat serine/threonine-protein kinase 2 (Homo sapiens), Q5S007 [G2019S]; conditions: Compound concentration 1000.0 nM
[12] = target: Serine/threonine-protein kinase Nek2 (Homo sapiens) (UniProt P51955); conditions: Compound concentration 1000.0 nM
[13] = target: Serine/threonine-protein kinase Nek3 (Homo sapiens) (UniProt P51956); conditions: Compound concentration 1000.0 nM
[14] = target: Ribosomal protein S6 kinase beta-1 (Homo sapiens) (UniProt P23443); conditions: Compound concentration 1000.0 nM
[15] = target: Serine/threonine-protein kinase 32B (Homo sapiens) (UniProt Q9NY57); conditions: Compound concentration 1000.0 nM
[16] = target: cAMP-dependent protein kinase catalytic subunit beta (Homo sapiens) (UniProt P22694); conditions: Compound concentration 1000.0 nM
[17] = target: Alpha-2B adrenergic receptor (Homo sapiens) (UniProt P18089); conditions: Compound concentration 10.0 uM
[18] = target: AP2-associated protein kinase 1 (Homo sapiens) (UniProt Q2M2I8); conditions: Compound concentration 1000.0 nM
[19] = target: Receptor-interacting serine/threonine-protein kinase 4 (Homo sapiens) (UniProt P57078); conditions: Compound concentration 1000.0 nM
[20] = target: SRSF protein kinase 2 (Homo sapiens) (UniProt P78362); conditions: Compound concentration 1000.0 nM
[21] = target: Casein kinase I isoform epsilon (Homo sapiens) (UniProt P49674); conditions: Compound concentration 1000.0 nM
[22] = system: Receptor-type tyrosine-protein kinase FLT3 (Homo sapiens), P36888 [K663Q]; conditions: Compound concentration 1000.0 nM
[23] = target: Discoidin domain-containing receptor 2 (Homo sapiens) (UniProt Q16832); conditions: Compound concentration 1000.0 nM
[24] = target: Bone morphogenetic protein receptor type-2 (Homo sapiens) (UniProt Q13873); conditions: Compound concentration 1000.0 nM
[25] = target: Calcium/calmodulin-dependent protein kinase kinase 2 (Homo sapiens) (UniProt Q96RR4); conditions: Compound concentration 1000.0 nM
[26] = system: Tyrosine-protein kinase ABL1 (Homo sapiens), P00519 [F317I]; conditions: Compound concentration 1000.0 nM
[27] = target: D(1A) dopamine receptor (Homo sapiens) (UniProt P21728); conditions: Compound concentration 10.0 uM
[28] = target: Serine/threonine-protein kinase 35 (Homo sapiens) (UniProt Q8TDR2); conditions: Compound concentration 1000.0 nM
[29] = target: Myosin light chain kinase, smooth muscle (Homo sapiens) (UniProt Q15746); conditions: Compound concentration 1000.0 nM
[30] = target: Atypical kinase COQ8B, mitochondrial (Homo sapiens) (UniProt Q96D53); conditions: Compound concentration 1000.0 nM
[31] = target: Receptor tyrosine-protein kinase erbB-4 (Homo sapiens) (UniProt Q15303); conditions: Compound concentration 1000.0 nM
[32] = target: MAP/microtubule affinity-regulating kinase 3 (Homo sapiens) (UniProt P27448); conditions: Compound concentration 1000.0 nM
[33] = target: Ephrin type-B receptor 4 (Homo sapiens) (UniProt P54760); conditions: Compound concentration 1000.0 nM
[34] = target: Testis-specific serine/threonine-protein kinase 1 (Homo sapiens) (UniProt Q9BXA7); conditions: Compound concentration 1000.0 nM
[35] = target: Serine/threonine-protein kinase BRSK2 (Homo sapiens) (UniProt Q8IWQ3); conditions: Compound concentration 1000.0 nM
[36] = target: Phosphatidylinositol 4,5-bisphosphate 3-kinase catalytic subunit gamma isoform (Homo sapiens) (UniProt P48736); conditions: Compound concentration 1000.0 nM
[37] = target: Serine/threonine-protein kinase LATS1 (Homo sapiens) (UniProt O95835); conditions: Compound concentration 1000.0 nM
[38] = target: Serine/threonine-protein kinase D2 (Homo sapiens) (UniProt Q9BZL6); conditions: Compound concentration 1000.0 nM
[39] = system: Phosphatidylinositol 4,5-bisphosphate 3-kinase catalytic subunit alpha isoform (Homo sapiens), P42336 [M1043I]; conditions: Compound concentration 1000.0 nM
[40] = target: Homeodomain-interacting protein kinase 3 (Homo sapiens) (UniProt Q9H422); conditions: Compound concentration 1000.0 nM
[41] = target: Cyclin-dependent kinase 11B (Homo sapiens) (UniProt P21127); conditions: Compound concentration 1000.0 nM
[42] = target: Serine/threonine-protein kinase 33 (Homo sapiens) (UniProt Q9BYT3); conditions: Compound concentration 1000.0 nM
[43] = target: Ribosomal protein S6 kinase alpha-6 (Homo sapiens) (UniProt Q9UK32); conditions: Compound concentration 1000.0 nM
[44] = target: Myosin light chain kinase family member 4 (Homo sapiens) (UniProt Q86YV6); conditions: Compound concentration 1000.0 nM
[45] = system: Receptor-type tyrosine-protein kinase FLT3 (Homo sapiens), P36888 [D835V]; conditions: Compound concentration 1000.0 nM

Fibroblast growth factor receptor 1 (Homo sapiens), sequence (P11362 22-822 limits assumed): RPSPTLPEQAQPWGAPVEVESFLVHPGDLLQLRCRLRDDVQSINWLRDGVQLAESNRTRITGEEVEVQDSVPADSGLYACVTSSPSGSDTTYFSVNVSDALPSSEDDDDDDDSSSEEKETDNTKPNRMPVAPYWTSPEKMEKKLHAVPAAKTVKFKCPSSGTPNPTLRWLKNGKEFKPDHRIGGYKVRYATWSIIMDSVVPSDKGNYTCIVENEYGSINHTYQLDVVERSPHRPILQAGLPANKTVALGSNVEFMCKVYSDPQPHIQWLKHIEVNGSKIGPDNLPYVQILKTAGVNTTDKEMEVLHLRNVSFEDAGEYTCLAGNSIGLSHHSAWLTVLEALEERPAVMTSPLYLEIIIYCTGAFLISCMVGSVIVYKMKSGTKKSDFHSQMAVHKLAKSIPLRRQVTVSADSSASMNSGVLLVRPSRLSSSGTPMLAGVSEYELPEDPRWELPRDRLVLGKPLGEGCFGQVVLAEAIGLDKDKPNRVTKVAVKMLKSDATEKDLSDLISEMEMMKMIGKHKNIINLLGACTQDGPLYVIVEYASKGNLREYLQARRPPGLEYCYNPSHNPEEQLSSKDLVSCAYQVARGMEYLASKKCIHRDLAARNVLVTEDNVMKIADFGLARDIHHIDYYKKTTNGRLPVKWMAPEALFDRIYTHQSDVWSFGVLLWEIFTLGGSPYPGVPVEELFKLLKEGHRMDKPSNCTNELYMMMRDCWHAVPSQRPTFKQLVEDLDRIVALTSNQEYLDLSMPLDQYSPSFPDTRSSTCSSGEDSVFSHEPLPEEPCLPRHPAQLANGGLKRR
MAP/microtubule affinity-regulating kinase 3 (Homo sapiens), sequence (P27448 whole entry, looked up): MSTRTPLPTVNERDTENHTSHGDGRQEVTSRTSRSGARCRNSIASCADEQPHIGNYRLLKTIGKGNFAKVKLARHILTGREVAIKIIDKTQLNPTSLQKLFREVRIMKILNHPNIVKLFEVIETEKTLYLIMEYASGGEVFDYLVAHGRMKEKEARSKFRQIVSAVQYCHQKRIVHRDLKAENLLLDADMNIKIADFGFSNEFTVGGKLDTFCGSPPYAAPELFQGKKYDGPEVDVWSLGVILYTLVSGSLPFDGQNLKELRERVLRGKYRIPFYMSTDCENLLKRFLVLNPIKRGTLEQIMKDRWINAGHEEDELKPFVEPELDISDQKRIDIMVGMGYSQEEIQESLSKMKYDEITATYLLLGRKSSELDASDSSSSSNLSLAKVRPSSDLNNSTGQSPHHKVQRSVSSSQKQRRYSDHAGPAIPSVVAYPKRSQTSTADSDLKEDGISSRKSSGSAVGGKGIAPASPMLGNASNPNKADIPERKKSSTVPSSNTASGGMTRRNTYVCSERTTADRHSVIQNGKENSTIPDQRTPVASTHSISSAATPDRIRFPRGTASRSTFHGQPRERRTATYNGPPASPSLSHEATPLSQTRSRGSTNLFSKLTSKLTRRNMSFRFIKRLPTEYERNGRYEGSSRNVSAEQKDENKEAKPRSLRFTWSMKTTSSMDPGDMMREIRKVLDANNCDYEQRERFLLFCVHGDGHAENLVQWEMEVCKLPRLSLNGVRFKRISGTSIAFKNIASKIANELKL
Homeodomain-interacting protein kinase 3 (Homo sapiens), sequence (Q9H422 whole entry, looked up): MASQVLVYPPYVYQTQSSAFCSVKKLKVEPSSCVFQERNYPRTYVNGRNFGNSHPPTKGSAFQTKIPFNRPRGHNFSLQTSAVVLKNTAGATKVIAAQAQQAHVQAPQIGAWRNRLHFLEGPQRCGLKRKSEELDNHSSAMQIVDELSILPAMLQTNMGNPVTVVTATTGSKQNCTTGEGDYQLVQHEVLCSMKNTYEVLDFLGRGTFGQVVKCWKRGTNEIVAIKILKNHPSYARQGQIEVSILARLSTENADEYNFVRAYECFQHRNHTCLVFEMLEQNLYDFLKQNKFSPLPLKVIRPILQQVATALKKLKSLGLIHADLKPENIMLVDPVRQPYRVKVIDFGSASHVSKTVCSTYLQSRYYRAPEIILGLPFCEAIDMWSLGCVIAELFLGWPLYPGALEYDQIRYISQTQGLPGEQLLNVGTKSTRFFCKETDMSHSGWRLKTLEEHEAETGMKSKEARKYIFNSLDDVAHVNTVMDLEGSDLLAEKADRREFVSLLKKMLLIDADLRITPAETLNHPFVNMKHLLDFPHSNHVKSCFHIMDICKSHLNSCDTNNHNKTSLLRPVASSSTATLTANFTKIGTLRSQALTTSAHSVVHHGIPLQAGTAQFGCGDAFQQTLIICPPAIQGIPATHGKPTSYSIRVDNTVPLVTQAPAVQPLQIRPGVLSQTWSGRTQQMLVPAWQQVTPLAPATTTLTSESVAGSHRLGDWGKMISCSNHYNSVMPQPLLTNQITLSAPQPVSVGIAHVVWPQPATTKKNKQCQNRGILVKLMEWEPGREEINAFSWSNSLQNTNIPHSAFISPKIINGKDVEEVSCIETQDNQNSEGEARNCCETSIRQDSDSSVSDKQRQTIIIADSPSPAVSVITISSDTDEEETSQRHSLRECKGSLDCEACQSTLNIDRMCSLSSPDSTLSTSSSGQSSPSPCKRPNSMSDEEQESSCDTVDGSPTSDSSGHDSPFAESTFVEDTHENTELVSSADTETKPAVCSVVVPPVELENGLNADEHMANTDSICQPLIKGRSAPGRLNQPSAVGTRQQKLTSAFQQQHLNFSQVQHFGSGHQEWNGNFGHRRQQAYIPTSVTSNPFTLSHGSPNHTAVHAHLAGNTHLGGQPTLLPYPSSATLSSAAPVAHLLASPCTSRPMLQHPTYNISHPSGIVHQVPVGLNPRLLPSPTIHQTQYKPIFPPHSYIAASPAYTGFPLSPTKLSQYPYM
Phosphatidylinositol 5-phosphate 4-kinase type-2 gamma (Homo sapiens), sequence (Q8TBX8 whole entry): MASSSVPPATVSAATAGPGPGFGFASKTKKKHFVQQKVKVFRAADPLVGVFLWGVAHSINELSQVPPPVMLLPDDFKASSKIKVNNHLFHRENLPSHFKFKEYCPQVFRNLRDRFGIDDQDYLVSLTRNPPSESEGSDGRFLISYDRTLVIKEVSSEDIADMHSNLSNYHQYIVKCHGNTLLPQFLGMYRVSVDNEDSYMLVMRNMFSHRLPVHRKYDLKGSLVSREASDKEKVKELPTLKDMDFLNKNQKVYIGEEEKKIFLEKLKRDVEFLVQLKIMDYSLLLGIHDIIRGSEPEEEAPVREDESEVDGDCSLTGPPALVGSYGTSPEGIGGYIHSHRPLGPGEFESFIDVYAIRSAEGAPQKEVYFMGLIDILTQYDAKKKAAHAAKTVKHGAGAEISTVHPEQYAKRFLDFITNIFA
Cyclin-dependent kinase 11B (Homo sapiens), sequence (P21127 whole entry): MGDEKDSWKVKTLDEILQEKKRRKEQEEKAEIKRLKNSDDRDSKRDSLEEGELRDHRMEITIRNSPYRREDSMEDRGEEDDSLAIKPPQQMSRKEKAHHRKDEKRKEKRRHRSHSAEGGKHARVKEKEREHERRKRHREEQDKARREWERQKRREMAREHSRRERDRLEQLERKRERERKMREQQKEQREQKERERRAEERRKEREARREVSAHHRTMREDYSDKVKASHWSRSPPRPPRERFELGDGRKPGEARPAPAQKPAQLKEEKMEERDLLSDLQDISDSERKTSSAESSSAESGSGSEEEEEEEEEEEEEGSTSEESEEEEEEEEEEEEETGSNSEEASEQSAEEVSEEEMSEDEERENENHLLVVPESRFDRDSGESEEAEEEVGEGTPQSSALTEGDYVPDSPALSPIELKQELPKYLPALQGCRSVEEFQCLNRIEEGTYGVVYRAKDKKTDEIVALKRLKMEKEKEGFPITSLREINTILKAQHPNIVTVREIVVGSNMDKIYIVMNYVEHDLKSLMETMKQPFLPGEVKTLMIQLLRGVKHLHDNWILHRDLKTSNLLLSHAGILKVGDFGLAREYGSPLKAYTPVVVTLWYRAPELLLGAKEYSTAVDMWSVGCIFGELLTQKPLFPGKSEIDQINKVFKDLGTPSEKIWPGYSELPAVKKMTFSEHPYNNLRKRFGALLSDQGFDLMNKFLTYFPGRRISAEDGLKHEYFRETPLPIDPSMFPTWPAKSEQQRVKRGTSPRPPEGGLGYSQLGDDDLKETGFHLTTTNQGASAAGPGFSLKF
Atypical kinase COQ8B, mitochondrial (Homo sapiens), sequence (Q96D53 whole entry): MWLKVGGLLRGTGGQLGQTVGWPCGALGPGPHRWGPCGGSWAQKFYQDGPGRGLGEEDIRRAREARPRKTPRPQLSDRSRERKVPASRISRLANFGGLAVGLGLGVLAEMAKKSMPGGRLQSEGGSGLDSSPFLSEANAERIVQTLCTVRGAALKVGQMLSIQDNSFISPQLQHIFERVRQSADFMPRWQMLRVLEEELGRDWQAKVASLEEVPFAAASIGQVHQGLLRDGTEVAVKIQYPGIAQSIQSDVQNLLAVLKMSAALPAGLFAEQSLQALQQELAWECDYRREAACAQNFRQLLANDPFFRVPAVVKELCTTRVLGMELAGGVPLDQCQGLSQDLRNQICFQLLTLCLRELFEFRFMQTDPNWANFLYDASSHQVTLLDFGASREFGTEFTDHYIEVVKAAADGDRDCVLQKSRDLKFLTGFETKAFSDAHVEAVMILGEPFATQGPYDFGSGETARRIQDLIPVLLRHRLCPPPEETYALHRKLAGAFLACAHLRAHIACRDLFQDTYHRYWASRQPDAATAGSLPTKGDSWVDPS
Serine/threonine-protein kinase 32B (Homo sapiens), sequence (Q9NY57 whole entry): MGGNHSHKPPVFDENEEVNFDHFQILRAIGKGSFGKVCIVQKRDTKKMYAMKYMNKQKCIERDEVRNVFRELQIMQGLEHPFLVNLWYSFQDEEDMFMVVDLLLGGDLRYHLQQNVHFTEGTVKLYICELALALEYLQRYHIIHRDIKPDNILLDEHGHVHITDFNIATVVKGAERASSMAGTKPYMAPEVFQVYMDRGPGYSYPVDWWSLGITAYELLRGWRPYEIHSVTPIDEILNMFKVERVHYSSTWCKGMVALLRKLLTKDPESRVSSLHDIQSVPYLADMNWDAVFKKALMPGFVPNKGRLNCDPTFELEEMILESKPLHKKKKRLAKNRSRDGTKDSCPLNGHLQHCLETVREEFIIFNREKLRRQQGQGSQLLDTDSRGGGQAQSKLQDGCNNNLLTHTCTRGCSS

SMILES: CCC(=O)N[C@H]1CC[C@@H](C(=O)N(C)c2ccc(-c3nc4ccccc4o3)cc2)C1 [BI 99179]
- residual activity [1]: 75%
- residual activity [2]: 100%
- residual activity [3]: 100%
- residual activity [4]: 100%
- residual activity [5]: 95%
- residual activity [6]: 100%
- residual activity [7]: 100%
- residual activity [8]: 70%
- residual activity [9]: 86%
- residual activity [10]: 83%
- residual activity [11]: 100%
- residual activity [12]: 100%
- residual activity [13]: 66%
- residual activity [14]: 99%
- residual activity [15]: 98%
- residual activity [16]: 100%
- inhibition [17]: 5.31%
- residual activity [18]: 100%
- residual activity [19]: 50%
- residual activity [20]: 61%
- residual activity [21]: 93%
- residual activity [22]: 88%
- residual activity [23]: 100%
- residual activity [24]: 98%
- residual activity [25]: 91%
- residual activity [26]: 86%
- inhibition [27]: -2.15%
- residual activity [28]: 88%
- residual activity [29]: 69%
- residual activity [30]: 74%
- residual activity [31]: 100%
- residual activity [32]: 96%
- residual activity [33]: 73%
- residual activity [34]: 91%
- residual activity [35]: 97%
- residual activity [36]: 99%
- residual activity [37]: 48%
- residual activity [38]: 100%
- residual activity [39]: 100%
- residual activity [40]: 74%
- residual activity [41]: 99%
- residual activity [42]: 100%
- residual activity [43]: 92%
- residual activity [44]: 100%
- residual activity [45]: 73%

SMILES: CCC(=O)N[C@@H]1CC[C@H](C(=O)N(C)c2ccc(-c3nc4ccccc4o3)cc2)C1 [BI 99990]
- residual activity [1]: 77%
- residual activity [2]: 100%
- residual activity [3]: 100%
- residual activity [4]: 100%
- residual activity [5]: 100%
- residual activity [6]: 100%
- residual activity [7]: 87%
- residual activity [8]: 100%
- residual activity [9]: 100%
- residual activity [10]: 100%
- residual activity [11]: 100%
- residual activity [12]: 100%
- residual activity [13]: 73%
- residual activity [14]: 93%
- residual activity [15]: 71%
- residual activity [16]: 100%
- inhibition [17]: 7.05%
- residual activity [18]: 100%
- residual activity [19]: 72%
- residual activity [20]: 100%
- residual activity [21]: 100%
- residual activity [22]: 100%
- residual activity [23]: 92%
- residual activity [24]: 100%
- residual activity [25]: 100%
- residual activity [26]: 76%
- inhibition [27]: -1.16%
- residual activity [28]: 100%
- residual activity [29]: 62%
- residual activity [30]: 94%
- residual activity [31]: 100%
- residual activity [32]: 100%
- residual activity [33]: 100%
- residual activity [34]: 76%
- residual activity [35]: 76%
- residual activity [36]: 75%
- residual activity [37]: 58%
- residual activity [38]: 100%
- residual activity [39]: 100%
- residual activity [40]: 76%
- residual activity [41]: 100%
- residual activity [42]: 100%
- residual activity [43]: 100%
- residual activity [44]: 100%
- residual activity [45]: 92%
